Where “and” joins values, the source holds several entries; their conditions need not be identical. Equal entries are not always repeated.
Legend:
[1] = 13-week mouse toxicity and toxicokinetic study; conditions: in vivo; for AUC(0-t): AUC0-24
Description: For toxicology assessment ten mice of each gender were placed in each group.
Ophthalmic examinations were performed during Weeks −1 and 12.

[2] = Single-dose (25 mg) food effect crossover study in 24 men (DOV 947-003); assay type: in vivo, human; conditions: for AUC(0-inf) / AUC(0-t) / Cmax / Tmax / half-life: male, human, in vivo, po, single oral dose 25 mg, 24 healthy male subjects
[3] = Single dose 300 mg / 450 mg pharmacokinetic, safety and tolerability study in healthy male and female subjects; conditions: for renal clearance, individual subjects: listed as DOV 21,947; for CL renal: urine and plasma, renal clearance; for CL renal / Percent of Dose in Urine (0-24 hr): Mean (SD)
Source text: Fourteen subjects, divided equally between males and females, were enrolled in the study and randomized between test article (5/sex) and placebo (2/sex). […] All subjects met the inclusion and exclusion criteria for entry into the study as detailed in the protocol and signed an informed consent form.
The subjects were confined to the clinical study site from Day −1 to the morning of Day 2, when they underwent a brief physical examination, clinical laboratory tests, and a physician visit before they were discharged. On Day 7, they reported to the clinical site again and were confined to the site until the morning of Day 9. At that time, they underwent a complete physical examination, clinical laboratory tests, and a physician's visit before they were discharged from the study. All subjects were fasted overnight on Days −1 and 7 from approximately 22:00 to approximately 4 hours post-dose on Days 1 and 8, at which time they received a standard lunch.
Subjects that received the placebo (2/sex) ingested six identical looking capsules with no drug. […] Capsules on both days were ingested with 240 mL water. […] Samples were collected into lithium heparin-containing Vacutainers® and centrifuged at approximately 3000 rpm to obtain the plasma fraction. The plasma was split into two polypropylene tubes and stored at −20° C. […] The urine volumes were recorded and an aliquot was stored for drug concentration measurements.
Validated LC/MS/MS assays were used for analyses; the assay range for both analytes in plasma and urine were 5.00 to 2000 ng/mL.
Plasma concentration-time data for each subject were analyzed with WinNonlin, version 4.1 (Pharsight Corporation, Mountain View, Calif.) using a non-compartmental model. […] Plasma concentrations listed as not detected (ND) or below the lower limit of quantitation (LLOQ) were set to zero. The values of Cmax and Tmax were the observed values for each subject. AUC0-t was determined using the linear trapezoidal rule whenever the concentration data were increasing and the logarithmic trapezoidal rule any time that the concentration data were decreasing. The apparent λz was calculated as the negative slope of the log-linear terminal portion of the blood concentration-time curve using linear regression. To allow for accurate calculation of λz, a minimum of three observations, selected by WinNonlin, was used. The t½ was calculated as ln 2/λz. AUC0-t was extrapolated to infinity (AUC0-∞) as follows: AUC0-∞=AUC0-t+Clast/λz where Clast is the last quantifiable concentration. The apparent oral clearance (CL/F) was calculated as Dose/AUC0-∞. The apparent oral volume of distribution (Vz/F) was calculated as Dose/λz×AUC0-∞. The mean residence time from time zero to infinity (MRT0-∞) was calculated as AUMC0-∞/AUC0-∞.

[4] = molecular target: T1, serotonin transporters (SERT) in the human brain (Homo sapiens, UniProt P31645); experiment: Open label PET study with [11C]DASB (DOV 947-007); assay type: in vivo; conditions: for brain SERT occupancy: 150 mg single oral dose; for Mean (Range) SERT Occupancy, Mean / Mean (Range) SERT Occupancy, Striatum / Mean (Range) SERT Occupancy, Thalamus: EB-1010 150 mg single oral, N = 3, preliminary
T1 construct: from tissue; host or cells: brain of healthy male volunteers, in vivo PET with [11C]DASB
T1 sequence (P31645 whole entry): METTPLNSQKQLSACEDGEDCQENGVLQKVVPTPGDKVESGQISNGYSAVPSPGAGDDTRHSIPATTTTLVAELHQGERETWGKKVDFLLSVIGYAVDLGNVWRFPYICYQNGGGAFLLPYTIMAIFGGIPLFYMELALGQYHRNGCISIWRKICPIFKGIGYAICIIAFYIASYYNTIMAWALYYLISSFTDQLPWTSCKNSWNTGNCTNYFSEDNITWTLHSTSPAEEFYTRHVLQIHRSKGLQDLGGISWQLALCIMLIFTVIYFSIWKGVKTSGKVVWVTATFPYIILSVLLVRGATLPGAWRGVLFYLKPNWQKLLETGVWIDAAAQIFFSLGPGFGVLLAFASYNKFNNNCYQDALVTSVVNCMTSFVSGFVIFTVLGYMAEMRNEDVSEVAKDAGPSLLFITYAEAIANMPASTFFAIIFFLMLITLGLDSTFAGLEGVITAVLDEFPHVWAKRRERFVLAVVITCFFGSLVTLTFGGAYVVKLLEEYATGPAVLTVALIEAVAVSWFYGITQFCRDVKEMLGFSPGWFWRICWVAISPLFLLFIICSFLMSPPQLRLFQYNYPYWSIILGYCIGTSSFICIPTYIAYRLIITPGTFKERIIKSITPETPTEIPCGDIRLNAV
Source text: With PET imaging, uptake inhibitor effects may be measured based on the proportion of SERT sites blocked in the brain. […] Safety was monitored by clinical and laboratory evaluations, including vital signs, physical examination, clinical chemistry, hematology, urinalysis, and ECG.

[5] = Rabbit pilot developmental toxicity study; assay type: in vivo; conditions: 30 mg/kg/day, GD 14
Description: On GD 29, a laparohysterectomy was performed on each surviving female.

[6] = female, Crl:CD-1(ICR) BR, po, 10 mg/kg/day
[7] = female, Crl:CD-1(ICR) BR, po, 30 mg/kg/day
[8] = female, Crl:CD-1(ICR) BR, po, 100 mg/kg/day
[9] = male, Crl:CD-1(ICR) BR, po, 10 mg/kg/day
[10] = male, Crl:CD-1(ICR) BR, po, 30 mg/kg/day
[11] = male, Crl:CD-1(ICR) BR, po, 100 mg/kg/day
[12] = both, human, plasma, oral, 300 mg
[13] = both, human, plasma, oral, 450 mg
[14] = both, human, plasma, po, 300 mg
[15] = both, human, plasma, po, 450 mg
[16] = female, human, plasma, po, 300 mg
[17] = female, human, plasma, po, 450 mg
[18] = male, human, plasma, po, 300 mg
[19] = male, human, plasma, po, 450 mg
[20] = single oral 300 mg DOV 21,947 HCl IR, Female, N = 5
[21] = single oral 300 mg DOV 21,947 HCl IR, Male, N = 5
[22] = single oral 300 mg DOV 21,947 HCl IR, mean, N = 10
[23] = single oral 450 mg DOV 21,947 HCl IR, Female, N = 5
[24] = single oral 450 mg DOV 21,947 HCl IR, Male, N = 5

Clc1ccc([C@]23CNC[C@H]2C3)cc1Cl [amitifadine, (+)-1-(3,4-dichlorophenyl)-3-azabicyclo[3.1.0]hexane]
NOAEL at 13 weeks ([1]; both sexes, Crl:CD-1(ICR) BR, oral, 13 weeks): 30 mg/kg/day | MTD at 13 weeks ([1]; both sexes, Crl:CD-1(ICR) BR, po): 100 mg/kg/day | anovulatory status (females affected) ([1]; female, Crl:CD-1(ICR) BR, 100 mg/kg/day, 13 weeks): 5/10 | AUC0-24 [1, 6]: 1980 ng·h/mL | AUC(0-t) [1, 6]: 2540 ng·h/mL | Cmax [1, 6]: 296 ng/mL | Tmax [1, 6]: 1 h | AUC0-24 [1, 7]: 7629 ng·h/mL | AUC(0-t) [1, 7]: 7120 ng·h/mL | Cmax [1, 7]: 972 ng/mL | Tmax [1, 7]: 2 h | AUC0-24 [1, 8]: 17431 ng·h/mL | AUC(0-t) [1, 8]: 20000 ng·h/mL | Cmax [1, 8]: 2450 ng/mL | Tmax [1, 8]: 1 h | ovary/oviduct weights lower ([1]; 100 mg/kg/day): 23-28% | AUC0-24 [1, 9]: 2141 ng·h/mL | AUC(0-t) [1, 9]: 2050 ng·h/mL | Cmax [1, 9]: 288 ng/mL | Tmax [1, 9]: 1 h | AUC0-24 [1, 10]: 6659 ng·h/mL | AUC(0-t) [1, 10]: 7290 ng·h/mL | Cmax [1, 10]: 704 ng/mL | Tmax [1, 10]: 1 h | AUC0-24 [1, 11]: 28952 ng·h/mL | AUC(0-t) [1, 11]: 24100 ng·h/mL | Cmax [1, 11]: 2850 ng/mL | Tmax [1, 11]: 1 h | effect of food on exposure ([2]; fed vs fasted): no effect of food on exposure | AUC(0-inf) ([2]; Fasted): 1290 ng·h/mL | AUC(0-t) ([2]; Fasted): 1200 ng·h/mL | Cmax ([2]; Fasted): 272 ng/mL | Tmax ([2]; Fasted): 0.98 h | half-life ([2]; Fasted): 3.42 h | AUC(0-inf) ([2]; Fed): 1420 ng·h/mL | AUC(0-t) ([2]; Fed): 1320 ng·h/mL | Cmax ([2]; Fed): 224 ng/mL | Tmax ([2]; Fed): 2.57 h | half-life ([2]; Fed): 3.71 h | ingested dose in urine (0-24 hr) ([3]; 300 mg): 0.4% | renal clearance, individual subjects ([3]; 300 mg single oral dose): 40.6 mL/h and 62.1 mL/h and 32.1 mL/h and 47.7 mL/h and 39.2 mL/h and 66.6 mL/h and 91.7 mL/h and 47.3 mL/h and 76.4 mL/h | ingested dose in urine (0-24 hr) ([3]; 450 mg): 0.3% | renal clearance, individual subjects ([3]; 450 mg single oral dose): 42.2 mL/h and 31.9 mL/h and 25.4 mL/h and 22.3 mL/h and 40.1 mL/h and 34.1 mL/h and 32.1 mL/h and 79.2 mL/h and 33.7 mL/h and 47.3 mL/h | oral clearance ([3]; 300 and 450 mg): 13.2 to 13.6 L/h | Cmax [3, 12]: 3370 ng/mL | Tmax [3, 12]: 2.15 h | Cmax [3, 13]: 5110 ng/mL | MRT [3, 13]: 6.3 to 6.4 h | Tmax [3, 13]: 2.43 h | half-life ([3]; both, human, plasma, oral, 450 mg, elimination half-life, 300 and 450 mg): ~4 h | AUC(0-inf) [3, 14]: 19700 ng·h/mL | AUC(0-t) [3, 14]: 19400 ng·h/mL | Cmax [3, 14]: 3370 ng/mL | MRT inf [3, 14]: 6.29 h | Tmax [3, 14]: 2.15 h | half-life ([3]; both, human, plasma, po, 300 mg, t½ (Harmonic mean), single oral 300 mg DOV 21,947 HCl IR, N = 10): 4.2 h | half-life ([3]; both, human, plasma, po, 300 mg, t½, single oral 300 mg DOV 21,947 HCl IR, arithmetic mean, N = 10): 4.24 h | AUC(0-inf) [3, 15]: 30500 ng·h/mL | AUC(0-t) [3, 15]: 30000 ng·h/mL | Cmax [3, 15]: 5110 ng/mL | MRT inf [3, 15]: 6.39 h | Tmax [3, 15]: 2.43 h | half-life ([3]; both, human, plasma, po, 450 mg, t½ (Harmonic mean), single oral 450 mg DOV 21,947 HCl IR, N = 10): 3.77 h | half-life ([3]; both, human, plasma, po, 450 mg, t½, single oral 450 mg DOV 21,947 HCl IR, arithmetic mean, N = 10): 3.82 h | CL renal ([3]; both, human, po, 300 mg, 300 mg single oral dose): 0.943 mL/min | CL renal ([3]; both, human, po, 450 mg, 450 mg single oral dose): 0.647 mL/min | AUC(0-inf) [3, 16]: 20500 ng·h/mL | AUC(0-t) [3, 16]: 20100 ng·h/mL | Cmax [3, 16]: 3260 ng/mL | MRT inf [3, 16]: 6.51 h | Tmax [3, 16]: 2.7 h | half-life ([3]; female, human, plasma, po, 300 mg, t½ (Harmonic mean), single oral 300 mg DOV 21,947 HCl IR, N = 5): 4.1 h | half-life ([3]; female, human, plasma, po, 300 mg, t½, single oral 300 mg DOV 21,947 HCl IR, N = 5, arithmetic mean): 4.14 h | AUC(0-inf) [3, 17]: 29900 ng·h/mL | AUC(0-t) [3, 17]: 29500 ng·h/mL | Cmax [3, 17]: 4540 ng/mL | MRT inf [3, 17]: 6.42 h | Tmax [3, 17]: 3 h | half-life ([3]; female, human, plasma, po, 450 mg, t½ (Harmonic mean), single oral 450 mg DOV 21,947 HCl IR, N = 5): 3.57 h | half-life ([3]; female, human, plasma, po, 450 mg, t½, single oral 450 mg DOV 21,947 HCl IR, N = 5, arithmetic mean): 3.58 h | AUC(0-inf) [3, 18]: 19000 ng·h/mL | AUC(0-t) [3, 18]: 18600 ng·h/mL | Cmax [3, 18]: 3480 ng/mL | MRT inf [3, 18]: 6.07 h | Tmax [3, 18]: 1.6 h | half-life ([3]; male, human, plasma, po, 300 mg, t½ (Harmonic mean), single oral 300 mg DOV 21,947 HCl IR, N = 5): 4.31 h | half-life ([3]; male, human, plasma, po, 300 mg, t½, single oral 300 mg DOV 21,947 HCl IR, N = 5, arithmetic mean): 4.34 h | AUC(0-inf) [3, 19]: 31100 ng·h/mL | AUC(0-t) [3, 19]: 30500 ng·h/mL | Cmax [3, 19]: 5680 ng/mL | MRT inf [3, 19]: 6.35 h | Tmax [3, 19]: 1.85 h | half-life ([3]; male, human, plasma, po, 450 mg, t½ (Harmonic mean), single oral 450 mg DOV 21,947 HCl IR, N = 5): 4 h | half-life ([3]; male, human, plasma, po, 450 mg, t½, single oral 450 mg DOV 21,947 HCl IR, N = 5, arithmetic mean): 4.06 h | CL/F [3, 20]: 13.0 L/h | λz [3, 20]: 0.169 h⁻¹ | CL/F [3, 21]: 14.2 L/h | λz [3, 21]: 0.161 h⁻¹ | Percent of Dose in Urine (0-24 hr) ([3]; single oral 300 mg DOV 21,947 HCl IR): 0.411 (0.121) Percent of Dose | Mean Amount in Urine ([3]; single oral 300 mg DOV 21,947 HCl IR, Period 0-1 hr): 17.0 µg | Mean Amount in Urine ([3]; single oral 300 mg DOV 21,947 HCl IR, Period 1-2 hr): 115 µg | Mean Amount in Urine ([3]; single oral 300 mg DOV 21,947 HCl IR, Period 2-4 hr): 279 µg | Mean Amount in Urine ([3]; single oral 300 mg DOV 21,947 HCl IR, Period 4-8 hr): 371 µg | Mean Amount in Urine ([3]; single oral 300 mg DOV 21,947 HCl IR, Period 8-12 hr): 137 µg | Mean Amount in Urine ([3]; single oral 300 mg DOV 21,947 HCl IR, Period 12-24 hr): 115 µg | Mean Amount in Urine ([3]; single oral 300 mg DOV 21,947 HCl IR, Total (0-24 hr)): 1064 µg | CL/F [3, 22]: 13.6 L/h | λz [3, 22]: 0.165 h⁻¹ | CL/F [3, 23]: 13.7 L/h | λz [3, 23]: 0.194 h⁻¹ | CL/F [3, 24]: 12.8 L/h | λz [3, 24]: 0.173 h⁻¹ | Percent of Dose in Urine (0-24 hr) ([3]; single oral 450 mg DOV 21,947 HCl IR): 0.299 (0.143) Percent of Dose | Mean Amount in Urine ([3]; single oral 450 mg DOV 21,947 HCl IR, Period 0-1 hr): 9.4 µg | Mean Amount in Urine ([3]; single oral 450 mg DOV 21,947 HCl IR, Period 1-2 hr): 66.3 µg | Mean Amount in Urine ([3]; single oral 450 mg DOV 21,947 HCl IR, Period 2-4 hr): 322 µg | Mean Amount in Urine ([3]; single oral 450 mg DOV 21,947 HCl IR, Period 4-8 hr): 402 µg | Mean Amount in Urine ([3]; single oral 450 mg DOV 21,947 HCl IR, Period 8-12 hr): 195 µg | Mean Amount in Urine ([3]; single oral 450 mg DOV 21,947 HCl IR, Period 12-24 hr): 164 µg | Mean Amount in Urine ([3]; single oral 450 mg DOV 21,947 HCl IR, Total (0-24 hr)): 1159 µg | λz ([3]; single oral 450 mg DOV 21,947 HCl IR, mean, N = 10): 0.184 h⁻¹ | brain SERT occupancy ([4]; about 2 hours): approximately 48% | brain SERT occupancy ([4]; about 7 hours): ~32% | brain SERT occupancy ([4]; about 7 hours, listed as EB-1010): approximately 32% | Mean (Range) SERT Occupancy, Mean ([4]; ~2 h): 48 (43-54) % | Mean (Range) SERT Occupancy, Striatum ([4]; ~2 h): 48 (44-53) % | Mean (Range) SERT Occupancy, Thalamus ([4]; ~2 h): 48 (41-55) % | Mean (Range) SERT Occupancy, Mean ([4]; ~7 h): 32 (23-41) % | Mean (Range) SERT Occupancy, Striatum ([4]; ~7 h): 32 (23-37) % | Mean (Range) SERT Occupancy, Thalamus ([4]; ~7 h): 33 (22-44) % | maternal outcome [5]: all females in the 30 mg/kg/day group were euthanized on GD 14
